Measured values as given in patent publication US4923697A, “Antioxidant compositions and methods” (Bar-Ilan University, priority 1986, dated 1990).

System: skin of adult mice
Test: TBA test of peroxide level in skin of adult shaved mice
Type: in vivo, mouse
Details: 0.1% in Oil of Olay
Text: Samples of creams and appropriate controls were applied to mice or rat skin for a fixed period. The application was done once a day. Experiments were terminated by killing the animal, peeling the skin and freezing it in liquid nitrogen. Samples of the frozen skin were homogenized in 0.2.M phosphate buffer, pH 6.5. After centrifugation, the supernatant was collected and analyzed for the peroxide value using the TBA (thiobarbituric acid) test as described by Sinnhuber et. al, Food Res. 23: 620 (1958).
In these experiments adult mice (2 months old) were treated as described in Example 2. The grown mice were shaved before applying the creams to the skin. In this experiment the antioxidant was dissolved in Oil of Olay. Mice were sacrificed after 21 days.

Question: For `COc1ccc(O)c(C(C)(C)C)c1` [BHA, butylated hydroxy anisole], which “reduction of the level of peroxides in the skin” value (“reduction” below) is on record?
Answer: no reduction of the level of peroxides was observed

Question: For `Cc1cc(C(C)(C)C)c(O)c(C(C)(C)C)c1` [BHT, butylated hydroxy toluene], which “reduction” value is on record?
Answer: no reduction of the level of peroxides was observed

Question: `Cc1c(C)c2c(c(C)c1O)CCC(C)(CCCC(C)CCCC(C)CCCC(C)C)O2` (stereo not drawn) [alpha tocopherol, alpha-tocopherol] was tested. Which “reduction” value did it give?
Answer: no reduction of the level of peroxides was observed
